6 substances from patent publication US11085056B2, “Transfection complexes and methods of using the same” (MOLECULAR TRANSFER, INC., priority 2015, dated 2021) can be followed below.

In test [1] the test system is HuVec Cells. As to the kind of experiment: Transfection of HuVec cells with DOTMA/DOPE/peptide and eGFP plasmid, fluorescent plate reader. The class given is cell-based. As to conditions: DOTMA/DOPE 1:1 plus peptide with RRRRRRRRRRRR (SEQ ID NO: 109) at n terminus; EF1Alpha eGFP plasmid; 0.01 mL complex; 42 hours. The method, then:
(§1) Cells were plated to so that on the day of transfection the cells were 60-70% confluent in 96 well tissue culture plates. A DOMTA/DOPE Lipid solution (1:1 molar ratio) at 2 mg/mL in water were mixed with an equal volume of surface ligand peptides that had the nucleic acid binding moiety RRRRRRRRRRRR (SEQ ID NO: 109) covalently linked to the n terminus of each peptide during peptide synthesis. Peptides were at 2 mg/mL in water. The DOTMA/DOPE and the surface ligand peptide solution the transfection reagent was diluted 1 to 1 (v/v) in water. DOMTA/DOPE/PEPTIDE solutions were added to 0.1 mL of a plasmid DNA solution (EF1Alpha eGFP plasmid) at 5 μg/mL in OptiMEM. Lipofectamine 2000 was obtained from Life Technologies.
(§2) All solutions were at room temperature. A volume of 0.2 mL of a 5 μg/mL solution of DNA was aliquoted into each well of a non-tissue cultured treated plate. 4.0 μL of transfection reagents were added to DNA solutions respectively. The transfection reagent and DNA solution was mixed by pipetting up and down twice. Transfection complexes were formed for 10 minutes. After 10 minutes, 0.01 or 0.02 mL of the transfection complex was added to cells. HuVEC, HeLa, human adult keratinocytes, human primary adult fibroblast, and rat cortical neurons all respectively received 0.01 mL of the tramsfectopm complex. Human skeletal muscle cells, mouse C2C12 cells, Jurkat, and THP-1 cells received 0.02 mL of the transfection complex. Cells were incubated for 42 hours at 37° C. at 5% CO2. Plates were read on a fluorescent plate reader. Cells were also examined visually under a microscope to assess the extent of transfection (in terms of the percent of cells transfected) with a fluorescent microscope. Other modes of analysis, for example quantification with B-galactosidase or luciferase reports plasmids can also be used. […] Surface ligand that caused increase expression of GFP over the lipid DOTMA with no surface ligand were considered to enhance transfection or had higher % cells transfected were considered to enhance transfection. Peptides that gave greater than 2 fold enhancement are noted in bold and could be further optimized by adding different transfection enhancers or could be used with different cationic lipids or polymers.

The subject of test [2] is NL-1 iPS Cells. As to the kind of experiment: Transfection of NL-1 iPS cells with DOTMA/DOPE/peptide and eGFP plasmid, fluorescent plate reader. The conditions noted are these: DOTMA/DOPE 1:1 plus peptide with RRRRRRRRRRRR (SEQ ID NO: 109) at n terminus; EF1Alpha eGFP plasmid; 42 hours. The class given is cell-based. The method, then:
as §1, §2

Test [3] has as its system HeLa Cells. As to the kind of experiment: Transfection of HeLa cells with DOTMA/SEQ ID NO: 72/peptide compared with Lipofectamine 2000. The class given is cell-based. As to conditions: fusogenic peptide 0.1 mg/mL. The method, then:
as §1, §2
The fusogenic peptide was added to the DOMTA/peptide formulation to achieve a final concentration of 0.1 mg/mL to see if transfection reagents were further enhanced by the addition of a fusogenic peptide and could provide higher transfection efficiency into HeLa cells and expression than the commercially available Lipofectamine 2000.

Test [4] relates to HeLa Cells. As to the kind of experiment: Transfection of HeLa cells with DOTMA/DOPE/peptide and eGFP plasmid, fluorescent plate reader. The class given is cell-based. As to conditions: DOTMA/DOPE 1:1 plus peptide with RRRRRRRRRRRR (SEQ ID NO: 109) at n terminus; EF1Alpha eGFP plasmid; 0.01 mL complex; 42 hours. On the procedure:
as §1, §2

The subject of test [5] is some examined cell types. In words: Transfection expression and % cells transfected over the no peptide control. The conditions noted are these: on some examined cell types. The class given is cell-based. The method, then:
as §1, §2

Test [6] has as its system Human Fibroblast Cells. As to the kind of experiment: Transfection of human fibroblast cells with DOTMA/DOPE/peptide and eGFP plasmid, fluorescent plate reader. The class given is cell-based. As to conditions: DOTMA/DOPE 1:1 plus peptide with RRRRRRRRRRRR (SEQ ID NO: 109) at n terminus; EF1Alpha eGFP plasmid; 0.01 mL complex; 42 hours. The method, then:
as §1, §2

Test [7] concerns C2C12 Cells. In words: Transfection of C2C12 cells with DOTMA/DOPE/peptide and eGFP plasmid, fluorescent plate reader. As to conditions: DOTMA/DOPE 1:1 plus peptide with RRRRRRRRRRRR (SEQ ID NO: 109) at n terminus; EF1Alpha eGFP plasmid; 0.02 mL complex; 42 hours. The class given is cell-based, mouse. The method, then:
as §1, §2

For test [8], the system named is Jurkat Cells. As to the kind of experiment: Transfection of Jurkat cells with DOTMA/DOPE/peptide and eGFP plasmid, fluorescent plate reader. As to conditions: DOTMA/DOPE 1:1 plus peptide with RRRRRRRRRRRR (SEQ ID NO: 109) at n terminus; EF1Alpha eGFP plasmid; 0.02 mL complex; 42 hours. The class given is cell-based. On the procedure: as §1, §2

Several values for one entry are separate records, joined by “and”; a condition that tells them apart may be missing. Equal entries are not always repeated.

With “236 (KNNQKSEPLIGRKKT; Peptidic transfection agent) [compound 236]”, in test [1], the “RF (Relative Fluorescence) of Transfection of HuVec Cells” value was found to be 14418. Moreover, the “RF (Relative Fluorescence) of Transfection of NL-1 iPS Cells” value in test [2] is 43542 and 22256. Further, the “RF (Relative Fluorescence), DOTMA/SEQ ID NO: 72/Peptide, HeLa Cells” value was determined as 5993 in test [3] (0.1 μL of DOTMA/SEQ ID NO: 72/Peptide in well of a 96 well plate), 8846 in test [3] (0.2 μL of DOTMA/SEQ ID NO: 72/Peptide in well of a 96 well plate), 8492 in test [3] (0.3 μL of DOTMA/SEQ ID NO: 72/Peptide in well of a 96 well plate) and 7316 in test [3] (0.4 μL of DOTMA/SEQ ID NO: 72/Peptide in well of a 96 well plate). In addition, the “RF (Relative Fluorescence) of Transfection of HeLa Cells” value in test [4] is 7202 and 5042. The “transfection expression and the % cells transfected over the no peptide control” value in test [5] is recorded as “increased”. Also, in test [6], the “RF (Relative Fluorescence) of Transfection of Human Fibroblast Cells” value was 3630 and 3000.
As for “359 (KAFDITYVRLKF; Peptidic transfection agent) [compound 359]”, the “RF (Relative Fluorescence) of Transfection of HuVec Cells” value in test [1] was determined as 3024. In addition, the “RF (Relative Fluorescence) of Transfection of C2C12 Cells” value in test [7] was 5693. Also, the “RF (Relative Fluorescence) of Transfection of NL-1 iPS Cells” value in test [2] is on record as 5548. The “RF (Relative Fluorescence) of Transfection of HeLa Cells” value in test [4] was 3136. Also, in test [8], the “RF (Relative Fluorescence) of Transfection of Jurkat Cells” value came out at 1880. Besides, in test [5], the “transfection expression and the % cells transfected over the no peptide control” value is “increased”. Also, the “RF (Relative Fluorescence) of Transfection of Human Fibroblast Cells” value in test [6] was 3206.
“256 (RQVFQVAYIIIKA; Peptidic transfection agent) [compound 256]”: the “RF (Relative Fluorescence) of Transfection of HuVec Cells” value in test [1] is given as 3030. The “RF (Relative Fluorescence) of Transfection of C2C12 Cells” value in test [7] was 3207. Further, the “RF (Relative Fluorescence) of Transfection of NL-1 iPS Cells” value in test [2] was 1825. Also, in test [4], the “RF (Relative Fluorescence) of Transfection of HeLa Cells” value came to 2243. For the same substance, the “RF (Relative Fluorescence) of Transfection of Jurkat Cells” value in test [8] came out at 3322. The “transfection expression and the % cells transfected over the no peptide control” value in test [5] was “increased”. For the same substance, the “RF (Relative Fluorescence) of Transfection of Human Fibroblast Cells” value in test [6] was found to be 2656.
With “230 (WQPPRARI; Peptidic transfection agent) [compound 230]”, the “RF (Relative Fluorescence) of Transfection of HuVec Cells” value in test [1] was determined as 9067. Further, the “RF (Relative Fluorescence) of Transfection of C2C12 Cells” value in test [7] amounted to 2606. For the same substance, the “RF (Relative Fluorescence) of Transfection of NL-1 iPS Cells” value in test [2] is given as 14524. The “RF (Relative Fluorescence) of Transfection of HeLa Cells” value in test [4] worked out at 8944. In addition, the “RF (Relative Fluorescence) of Transfection of Jurkat Cells” value in test [8] came to 10229. Besides, the “transfection expression and the % cells transfected over the no peptide control” value in test [5] is “increased”. For the same substance, in test [6], the “RF (Relative Fluorescence) of Transfection of Human Fibroblast Cells” value turned out to be 11771.
On to “205 (AASIKVAVSADR; Peptidic transfection agent) [compound 205]”, for which, in test [1], the “RF (Relative Fluorescence) of Transfection of HuVec Cells” value stood at 8309. For the same substance, in test [7], the “RF (Relative Fluorescence) of Transfection of C2C12 Cells” value turned out to be 2102. The “RF (Relative Fluorescence) of Transfection of NL-1 iPS Cells” value in test [2] is 13140. Besides, in test [4], the “RF (Relative Fluorescence) of Transfection of HeLa Cells” value is given as 26368. Also, the “RF (Relative Fluorescence) of Transfection of Jurkat Cells” value in test [8] turned out to be 2298. Further, in test [5], the “transfection expression and the % cells transfected over the no peptide control” value was “increased”. In addition, in test [6], the “RF (Relative Fluorescence) of Transfection of Human Fibroblast Cells” value was 8550.
For “226 (ANGQTPIQRYIK; Peptidic transfection agent) [compound 226]”, the “RF (Relative Fluorescence) of Transfection of HuVec Cells” value in test [1] was found to be 20864. Besides, the “RF (Relative Fluorescence) of Transfection of C2C12 Cells” value in test [7] stood at 1664. The “RF (Relative Fluorescence) of Transfection of NL-1 iPS Cells” value in test [2] was 24920. Further, the “RF (Relative Fluorescence) of Transfection of HeLa Cells” value in test [4] is given as 7340. The “RF (Relative Fluorescence) of Transfection of Jurkat Cells” value in test [8] amounted to 12976. In addition, in test [5], the “transfection expression and the % cells transfected over the no peptide control” value is on record as “increased”. For the same substance, the “RF (Relative Fluorescence) of Transfection of Human Fibroblast Cells” value in test [6] is 3431.
